Here are results for 2 compounds from article PMC3086806, “Mining a Cathepsin Inhibitor Library for New Antiparasitic Drug Leads” (PLoS Neglected Tropical Diseases, 2011).

Data set [1] deals with human cathepsin L. More on the design: method as in data provided by Celera Genomics. The note with it: historical data; ref data provided by Celera Genomics; read-out: Ki catL; cited from earlier work.
The test system of data set [2] is W2-strain P. falciparum parasites. The data set is described as follows: P. falciparum growth inhibition assay. The class given is cell-based, Plasmodium falciparum. The note with it: Plasmodium falciparum; cultured W2 strain, 48 hours; read-out: GI50 P. falc. W2. On the procedure:
The growth inhibition assay for P. falciparum was conducted as described previously. W2-strain P. falciparum parasites (1% parasitemia, 2% hematocrit) were cultured at 37°C in human red blood cells under the atmosphere of 3% O2, 5% CO2 balance N2 in 0.2 mL of per well in medium RPMI-1640 supplemented with 10% human serum in duplicate 96-well flat bottom culture plates in the presence of inhibitors. Tested compounds were serially diluted 1∶3 in the range 10,000 – 4.6 nM, with maximum DMSO concentration of 0.1%. Following 48 hours of incubation, the medium was removed and the cells were fixed in 2% formaldehyde in PBS. Parasite growth was evaluated by flow cytometry on a FACsort (Becton Dickinson) equipped with AMS-1 loader (Cytek Development) after staining with 1 nM DNA dye YOYO-1(Molecular Probes) in 100 mM NH4Cl, 0.8% NaCl. Parasitemias were determined from dot plots (forward scatter vs. fluorescence) using […] software (Becton Dickinson). IC50 values for growth inhibition were determined from plots of percentage control parasitemia over inhibitor concentration using GraphPad Prism software.

Data set [3] is described as follows: Jurkat cell cytotoxicity assay. To be noted: human, Jurkat cells (clone E6-1), read-out: Cytotoxicity (% inhibition at 10 µM) Jurkat cells. The class given is cell-based. How it is done: Jurkat cells (clone E6-1) were grown in complete RPMI-1640 medium containing 10% FBS, 50 U/mL penicillin and 50 µg/mL streptomycin (Invitrogen) at 37°C under a humidified atmosphere and 5% CO2. For cytotoxicity testing, cells were diluted to 1×10^5 per ml in complete RPMI-1640 medium. Test compound stocks were prepared in 100% DMSO and screened at 10 µM against cells (1×10^4 cells per well) in sterile Greiner 96-well flat white opaque culture plates (0.5% final DMSO concentration). The 0% inhibition control wells contained 0.5% DMSO while 100% inhibition control wells contained 40 µM staurosporine. After compound addition, plates were incubated for 40 hr at 37°C. At the end of the incubation period, 50 µL of CellTiter-Glo™ reagent (Promega Inc., Madison, WI, USA) was added to each well and plates were placed on an orbital shaker at room temperature for 2 min to induce lysis. After a further 10 min incubation without shaking to stabilize the signal, the ATP-bioluminescence of each well was determined using an Analyst HT plate reader (Molecular Devices, Sunnyvale, CA, USA). Calculations of percentage inhibition and IC50 were performed similar to those in the T. brucei brucei assay.

The target in data set [4] is T1, TbCatB (Trypanosoma brucei, UniProt Q6R7Z5).
T1 construct: made in house
T1 sequence (Q6R7Z5 23-340): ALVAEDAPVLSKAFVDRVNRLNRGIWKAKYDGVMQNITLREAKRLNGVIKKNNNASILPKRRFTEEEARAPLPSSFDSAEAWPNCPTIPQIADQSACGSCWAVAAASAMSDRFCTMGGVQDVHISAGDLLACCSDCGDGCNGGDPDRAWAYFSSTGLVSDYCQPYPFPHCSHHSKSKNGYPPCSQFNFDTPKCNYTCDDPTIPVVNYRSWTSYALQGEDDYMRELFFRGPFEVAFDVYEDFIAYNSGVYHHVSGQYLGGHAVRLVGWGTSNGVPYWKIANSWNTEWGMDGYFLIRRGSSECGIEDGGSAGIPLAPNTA
As to the kind of experiment: TbCatB protease inhibition assay (Z-Phe-Arg-AMC). The class given is biochemical. On the procedure: Recombinant cruzain, rhodesain, TbCatB, falcipain-2 and falcipain-3 were expressed as described previously, [39], [40], [41], [42]. Inhibitor stock solutions were prepared in DMSO and screened at 0.1 µM for cruzain and rhodesain, 1 µM for TbCatB and 50 nM for falcipain-3 (0.5% DMSO in assay). […] Protease inhibition assays for cruzain and rhodesain were carried out in 96 well plate format as described previously. Cruzain (4 nM), rhodesain (4 nM) or TbCatB (258 nM) was incubated with test compound in 100 mM sodium acetate, pH 5.5, containing 5 mM DTT and 0.01% Triton X-100 (buffer A), for 5 min at room temperature (the higher concentration of TbCatB was required due to its lower intrinsic activity against the fluorogenic substrate). Then buffer A containing Z-Phe-Arg-AMC (Bachem) was added to enzyme-compound mixture to give 10 µM substrate in a final assay volume of 200 µL. The rate of free AMC release was measured at excitation and emission wavelengths of 355 and 460 nm, respectively, with a microtiter plate spectrofluorimeter (SpectraMax M5, Molecular Devices) for 3 min. Percentage inhibition of test compound was calculated relative to the DMSO control (0% inhibition control). IC50 values were determined with Prism 4 software (GraphPad, San Diego, CA) using sigmoidal dose-response variable slope model.

As to `CCCCC(NC(=O)C(CC(C)C)NC(=O)N1CCOCC1)C(=O)c1nc2ccccc2o1` (centres unmarked) [Compound 19a], the Ki (usually the equilibrium dissociation constant of an inhibitor or competing ligand from its target) in data set [1] was 26 nM. Besides, in data set [2], the GI50 (in general, the concentration giving 50% growth inhibition) was 1200 nM. For the same compound, the cytotoxicity at 40 h, 10 µM in data set [3] is less than 5%. In addition, half-maximal inhibition in data set [4] (IC50) was put at 1000 nM.
In the case of `CCCCC(NC(=O)C(Cc1ccccc1)NC(=O)N1CCOCC1)C(=O)c1nc2ccccc2o1` (centres unmarked) [Compound 19b], the Ki in data set [1] is 180 nM. The GI50 in data set [2] amounted to 2900 nM. Moreover, the cytotoxicity at 40 h, 10 µM in data set [3] was less than 5%. In addition, inhibition in data set [4] was half-maximal at 600 nM (IC50).
